Assay results: ChEMBL document CHEMBL3232846, “Synthesis and discovery of highly functionalized mono- and bis-spiro-pyrrolidines as potent cholinesterase enzyme inhibitors” (Bioorg Med Chem Lett, 2014)
pIC50: −log10 of the molar value.

Columns and labels:
[1] = Selectivity ratio of IC50 for electric eel AChE to IC50 for equine serum BChE
[2] = Selectivity ratio of IC50 for equine serum BChE to IC50 for electric eel AChE
Acetylcholinesterase = Acetylcholinesterase (Electrophorus electricus, UniProt O42275); assay: Inhibition of electric eel AChE using acetylthiocholine iodide as substrate preincubated for 15 mins by spectrophotometer analysis
Cholinesterase = Cholinesterase (Equus caballus, UniProt P81908); assay: Inhibition of equine serum BChE using S-butyrylthiocholine chloride as substrate preincubated for 15 mins by spectrophotometer analysis
Chain of Cholinesterase (P81908 whole entry): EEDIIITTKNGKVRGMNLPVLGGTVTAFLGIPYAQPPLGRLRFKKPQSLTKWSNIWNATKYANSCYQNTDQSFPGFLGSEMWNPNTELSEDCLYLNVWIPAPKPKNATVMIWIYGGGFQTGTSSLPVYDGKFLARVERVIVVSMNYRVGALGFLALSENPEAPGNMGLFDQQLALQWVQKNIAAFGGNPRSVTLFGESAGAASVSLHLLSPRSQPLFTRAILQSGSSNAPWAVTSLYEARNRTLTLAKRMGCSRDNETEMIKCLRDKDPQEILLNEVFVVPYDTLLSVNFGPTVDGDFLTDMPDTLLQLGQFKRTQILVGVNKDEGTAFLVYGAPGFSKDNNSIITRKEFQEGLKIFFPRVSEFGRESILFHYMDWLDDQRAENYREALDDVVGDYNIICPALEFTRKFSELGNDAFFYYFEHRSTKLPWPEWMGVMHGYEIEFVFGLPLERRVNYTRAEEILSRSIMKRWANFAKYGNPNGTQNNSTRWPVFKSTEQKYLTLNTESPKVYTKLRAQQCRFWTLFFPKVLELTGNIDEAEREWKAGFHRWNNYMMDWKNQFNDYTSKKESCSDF

Chain of Acetylcholinesterase (O42275 whole entry): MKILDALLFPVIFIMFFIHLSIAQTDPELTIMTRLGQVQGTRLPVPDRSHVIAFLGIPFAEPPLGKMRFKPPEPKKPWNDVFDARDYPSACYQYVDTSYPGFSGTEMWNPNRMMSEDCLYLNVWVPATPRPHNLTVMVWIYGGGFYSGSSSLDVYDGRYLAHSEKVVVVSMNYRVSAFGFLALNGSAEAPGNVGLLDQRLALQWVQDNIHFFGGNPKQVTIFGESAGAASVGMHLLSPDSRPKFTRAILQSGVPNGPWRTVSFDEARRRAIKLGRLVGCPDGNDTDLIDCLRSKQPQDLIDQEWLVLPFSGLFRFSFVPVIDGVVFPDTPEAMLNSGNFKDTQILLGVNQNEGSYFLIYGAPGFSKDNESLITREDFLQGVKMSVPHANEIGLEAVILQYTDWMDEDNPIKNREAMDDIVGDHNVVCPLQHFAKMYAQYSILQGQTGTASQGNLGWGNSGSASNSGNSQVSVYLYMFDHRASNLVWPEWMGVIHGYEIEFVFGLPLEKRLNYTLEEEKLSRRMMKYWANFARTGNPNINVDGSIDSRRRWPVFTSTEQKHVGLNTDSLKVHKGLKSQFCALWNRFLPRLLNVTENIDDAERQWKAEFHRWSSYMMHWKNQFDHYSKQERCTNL

SMILES | Ratio IC50 [1] | Ratio IC50 [2] | pIC50 (Acetylcholinesterase) | pIC50 (Cholinesterase)
C=CC(=O)N1C/C(=C\c2ccccc2F)C(=O)C2(C1)C(c1ccccc1F)C(c1ccccc1)NC21C(=O)Nc2ccccc21 (racemic) | 0.19 | 5.18 | 5.64 | 4.93
C=CC(=O)N1C/C(=C\c2ccccc2OC)C(=O)C2(C1)C(c1ccccc1OC)C(c1ccccc1)NC21C(=O)Nc2ccccc21 (racemic) | 0.32 | 3.14 | 5.25 | 4.76
O=C(C1CC(c2ccccc2)NC12C(=O)Nc1ccccc12)N1C/C(=C\c2ccccc2)C(=O)C2(C1)C(c1ccccc1)C(c1ccccc1)NC21C(=O)Nc2ccccc21 (racemic) | 0.79 | 1.27 | 4.68 | 4.58
O=C(C1CC(c2ccccc2)NC12C(=O)Nc1ccccc12)N1C/C(=C\c2ccccc2F)C(=O)C2(C1)C(c1ccccc1F)C(c1ccccc1)NC21C(=O)Nc2ccccc21 (racemic) | 0.21 | 4.81 | 5.13 | 4.45
Cc1ccccc1/C=C1\CN(C(=O)C2CC(c3ccccc3)NC23C(=O)Nc2ccccc23)CC2(C1=O)C(c1ccccc1C)C(c1ccccc1)NC21C(=O)Nc2ccccc21 (racemic) | 1.05 | 0.95 | 4.52 | 4.54
C=CC(=O)N1C/C(=C\c2ccc(Cl)cc2)C(=O)C2(C1)C(c1ccc(Cl)cc1)C(c1ccccc1)NC21C(=O)Nc2ccccc21 (racemic) | 0.53 | 1.9 | 5.34 | 5.06
C=CC(=O)N1C/C(=C\c2ccccc2C)C(=O)C2(C1)C(c1ccccc1C)C(c1ccccc1)NC21C(=O)Nc2ccccc21 (racemic) | 0.47 | 2.13 | 4.99 | 4.66
O=C(C1CC(c2ccccc2)NC12C(=O)Nc1ccccc12)N1C/C(=C\c2ccc(Cl)cc2)C(=O)C2(C1)C(c1ccc(Cl)cc1)C(c1ccccc1)NC21C(=O)Nc2ccccc21 (racemic) | 0.44 | 2.25 | 4.91 | 4.56
C=CC(=O)N1C/C(=C\c2cccc([N+](=O)[O-])c2)C(=O)C2(C1)C(c1cccc([N+](=O)[O-])c1)C(c1ccccc1)NC21C(=O)Nc2ccccc21 (racemic) | 1.43 | 0.7 | 4.82 | 4.97
C=CC(=O)N1C/C(=C\c2ccccc2)C(=O)C2(C1)C(c1ccccc1)C(c1ccccc1)NC21C(=O)Nc2ccccc21 (racemic) | 0.37 | 2.69 | 5.34 | 4.91
O=C(C1CC(c2ccccc2)NC12C(=O)Nc1ccccc12)N1C/C(=C\c2ccc(F)cc2)C(=O)C2(C1)C(c1ccc(F)cc1)C(c1ccccc1)NC21C(=O)Nc2ccccc21 (racemic) | 1.51 | 0.66 | 4.66 | 4.84
O=C(C1CC(c2ccccc2)NC12C(=O)Nc1ccccc12)N1C/C(=C\c2cccc3ccccc23)C(=O)C2(C1)C(c1cccc3ccccc13)C(c1ccccc1)NC21C(=O)Nc2ccccc21 (racemic) | 0.48 | 2.08 | 5.03 | 4.72
O=C(C1CC(c2ccccc2)NC12C(=O)Nc1ccccc12)N1C/C(=C\c2cccc([N+](=O)[O-])c2)C(=O)C2(C1)C(c1cccc([N+](=O)[O-])c1)C(c1ccccc1)NC21C(=O)Nc2ccccc21 (racemic) | 0.95 | 1.05 | 4.77 | 4.75
Cc1ccc(/C=C2\CN(C(=O)C3CC(c4ccccc4)NC34C(=O)Nc3ccccc34)CC3(C2=O)C(c2ccc(C)cc2)C(c2ccccc2)NC32C(=O)Nc3ccccc32)cc1 (racemic) | 1.02 | 0.98 | 4.69 | 4.70
O=C(C1CC(c2ccccc2)NC12C(=O)Nc1ccccc12)N1C/C(=C\c2ccc(Cl)cc2Cl)C(=O)C2(C1)C(c1ccc(Cl)cc1Cl)C(c1ccccc1)NC21C(=O)Nc2ccccc21 (racemic) | 0.33 | 3.06 | 5.06 | 4.58
C=CC(=O)N1C/C(=C\c2ccccc2Cl)C(=O)C2(C1)C(c1ccccc1Cl)C(c1ccccc1)NC21C(=O)Nc2ccccc21 (racemic) | 0.08 | 13.2 | 5.77 | 4.65
C=CC(=O)N1C/C(=C\c2ccc(F)cc2)C(=O)C2(C1)C(c1ccc(F)cc1)C(c1ccccc1)NC21C(=O)Nc2ccccc21 (racemic) | 2.17 | 0.46 | 5.22 | 5.56
C=CC(=O)N1C/C(=C\c2ccc(C)cc2)C(=O)C2(C1)C(c1ccc(C)cc1)C(c1ccccc1)NC21C(=O)Nc2ccccc21 (racemic) | 2.48 | 0.4 | 4.84 | 5.23
COc1ccccc1/C=C1\CN(C(=O)C2CC(c3ccccc3)NC23C(=O)Nc2ccccc23)CC2(C1=O)C(c1ccccc1OC)C(c1ccccc1)NC21C(=O)Nc2ccccc21 (racemic) | 0.28 | 3.51 | 5.04 | 4.49
C=CC(=O)N1C/C(=C\c2ccc(Cl)cc2Cl)C(=O)C2(C1)C(c1ccc(Cl)cc1Cl)C(c1ccccc1)NC21C(=O)Nc2ccccc21 (racemic) | 0.23 | 4.4 | 5.21 | 4.57
C=CC(=O)N1C/C(=C\c2cccc3ccccc23)C(=O)C2(C1)C(c1cccc3ccccc13)C(c1ccccc1)NC21C(=O)Nc2ccccc21 (racemic) | 0.15 | 6.65 | 5.68 | 4.86
O=C(C1CC(c2ccccc2)NC12C(=O)Nc1ccccc12)N1C/C(=C\c2ccccc2Cl)C(=O)C2(C1)C(c1ccccc1Cl)C(c1ccccc1)NC21C(=O)Nc2ccccc21 (racemic) | 0.64 | 1.56 | 4.95 | 4.75
